Measurements reported in patent US8420657B2 (Novartis AG, priority 2008, dated 2013).

molecular target: T1, GST-JAK2(808-1132) (Homo sapiens, UniProt O60674); test: JAK2 kinase assay (Caliper mobility shift, LabChip 3000); format: biochemical
T1 construct: GST-JAK2(808-1132); purchased Invitrogen (Carlsbad, USA) #4288
Excerpt: All four kinases of the JAK/TYK-kinase family were used as purified recombinant GST-fusion proteins, containing the active kinase domains. GST-JAK1 (866-1154), GST-JAK3(811-1124), and GST-TYK2(888-1187) were expressed and purified by affinity chromatography at the EPK biology unit. GST-JAK2(808-1132) was purchased from Invitrogen (Carlsbad, USA, #4288).
The kinase assays were based on the Caliper mobility shift assay using the LabChip 3000 systems. This technology is similar to capillary electrophoresis and uses charge driven separation of substrate and product in a microfluidic chip.
All kinase reactions were performed in 384 well microtiter plates in a total reaction volume of 18 μl. The assay plates were prepared with 0.1 μl per well of test compound in the appropriate test concentration, as described under the section “preparation of compound dilutions”. The reactions were started by combining 9 μl of substrate mix (consisting of peptide and ATP) with 9 μl of kinase dilution. The reactions were incubated for 60 minutes at 30° C. and stopped by adding 70 μl of stop buffer (100 mM Hepes, 5% DMSO, 0.1% Coating reagent, 10 mM EDTA, 0.015% Brij 35).
Fluorescently labeled synthetic peptides were used as substrates in all reactions. A peptide derived from the sequence of IRS-1(IRS-1 peptide, SEQ ID NO: 1 FITC-Ahx-KKSRGDYMTMQIG-NH2) was used for JAK1 and TYK2 and a peptide named JAK3tide SEQ ID NO: 2 (FITC-GGEEEEYFELVKKKK-NH2) for JAK2 and JAK3. Specific assay conditions are described in Table1:
The terminated reactions were transferred to the Caliper LabChip 3000 reader and the turnover of each reaction was measured by determining the substrate/product ratio.
Test compounds were dissolved in DMSO (10 mM) and transferred into 1.4 mL flat bottom or V-shaped Matrix tubes carrying a unique 2D matrix chip by individual compound hubs. The numbers of these chips were distinctively linked to the individual compound identification numbers. The stock solutions were stored at −20° C. if not used immediately. For the test procedure the vials were defrosted and identified by a scanner whereby a working sheet was generated that guided the subsequent working steps. Compound dilutions were made in 96 well plates. This format enabled the assay of maximally 40 individual test compounds at 8 concentrations (single points) including 4 reference compounds. The dilution protocol included the production of pre-dilution plates, master plates and assay plates:
Pre-dilution plates: 96 polypropylene well plates were used as pre-dilution plates. A total of 4 pre-dilution plates were prepared including 10 test compounds each on the plate positions A1-A10, one standard compound at A11 and one DMSO control at A12. All dilution steps were done on a HamiltonSTAR robot.
Master plates: 100 μL of individual compound dilutions including standard compound and controls of the 4 “pre-dilution plates” were transferred into a 384 “master plate” including the following concentrations 1,820, […], 182, 54.6, 18.2, 5.46, 1.82 and 0.546 μM, respectively in 90% of DMSO.
Assay plates: Identical assay plates were then prepared by pipetting 100 nL each of compound dilutions of the master plates into 384-well “assay plates”. In the following the compounds were mixed with 9 μL of assays components plus 9 μL enzyme corresponding to a 1:181 dilution steps enabling the final concentration of 10, 3.0, 1.0, 0.3, 0.1, 0.03, 0.01 and 0.003 μM, respectively. The preparation of the master plates were handled by the Matrix PlateMate Plus robot and replication of assay plates by the HummingBird robot.

T1 sequence (O60674 808-1132): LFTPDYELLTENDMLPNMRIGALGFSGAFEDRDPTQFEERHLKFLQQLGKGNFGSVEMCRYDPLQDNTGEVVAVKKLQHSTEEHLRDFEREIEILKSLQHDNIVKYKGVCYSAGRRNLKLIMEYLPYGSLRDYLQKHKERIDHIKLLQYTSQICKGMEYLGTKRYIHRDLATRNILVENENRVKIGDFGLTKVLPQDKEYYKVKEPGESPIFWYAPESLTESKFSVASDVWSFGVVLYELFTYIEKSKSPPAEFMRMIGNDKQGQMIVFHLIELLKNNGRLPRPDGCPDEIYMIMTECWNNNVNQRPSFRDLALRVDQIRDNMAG

Compound | IC50 [nM]
C[C@@H]1CN[C@@H](C)CN1c1ccc(Nc2ncc3ccn(-c4ccc(S(N)(=O)=O)cc4)c3n2)cn1 (racemic) [Example 357, 4-{2-[6-((2R,5S)-2,5-Dimethyl-piperazin-1-yl)-pyridin-3-ylamino]-pyrrolo[2,3-d]pyrimidin-7-yl}-benzenesulfonamide] | 6.9
Cc1ccc(Nc2ncc3ccn(-c4ccc(C(=O)N5CCOCC5)c(F)c4)c3n2)cc1CN1C[C@H](C)NC[C@H]1C (racemic) [Example 379, (4-{2-[3-((2R,5S)-2,5-Dimethyl-piperazin-1-ylmethyl)-4-methyl-phenylamino]-pyrrolo[2,3-d]pyrimidin-7-yl}-2-fluoro-phenyl)-morpholin-4-yl-methanone] | 11
OC1CCN(Cc2cc(Nc3ncc4ccn(-c5cc(F)c(CN6CCOCC6)c(F)c5)c4n3)ccn2)C1 (racemic) [Example 416, 1-{4-[7-(3,5-Difluoro-4-morpholin-4-ylmethyl-phenyl)-7H-pyrrolo[2,3-d]pyrimidin-2-ylamino]-pyridin-2-ylmethyl}-pyrrolidin-3-ol] | ≤ 3
COc1cc(Nc2ncc3ccn(-c4ccc(C(=O)NC(C)(C)C)cc4)c3n2)cc(OC)c1OC [Example 9, N-tert-Butyl-4-[2-(3,4,5-trimethoxy-phenylamino)-pyrrolo[2,3-d]pyrimidin-7-yl]-benzamide] | < 3
COc1cc(Nc2ncc3ccn(-c4ccc(S(=O)(=O)N(C)C)cc4)c3n2)cc(OC)c1OC [Example 10, N,N-Dimethyl-4-[2-(3,4,5-trimethoxy-phenylamino)-pyrrolo[2,3-d]pyrimidin-7-yl]-benzenesulfonamide] | < 3
COc1cc(C)c(Nc2ncc3ccn(-c4ccc(S(C)(=O)=O)cc4)c3n2)cc1OC [Example 11, (4,5-Dimethoxy-2-methyl-phenyl)-[7-(4-methanesulfonyl-phenyl)-7H-pyrrolo[2,3-d]pyrimidin-2-yl]-amine] | 190
CS(=O)(=O)c1ccc(-n2ccc3cnc(Nc4ccc5c(c4)OC(F)(F)C(F)(F)O5)nc32)cc1 [Example 14, [7-(4-Methanesulfonyl-phenyl)-7H-pyrrolo[2,3-d]pyrimidin-2-yl]-(2,2,3,3-tetrafluoro-2,3-dihydro-benzo[1,4]dioxin-6-yl)-amine] | 2100
CN(C)c1ccc(Nc2ncc3ccn(-c4ccc(S(C)(=O)=O)cc4)c3n2)cc1 [Example 21, N-[7-(4-Methanesulfonyl-phenyl)-7H-pyrrolo[2,3-d]pyrimidin-2-yl]-N′,N′-dimethyl-benzene-1,4-diamine] | 23
COc1ccc(Nc2ncc3ccn(-c4ccc(S(C)(=O)=O)cc4)c3n2)cc1O [Example 24, 5-[7-(4-Methanesulfonyl-phenyl)-7H-pyrrolo[2,3-d]pyrimidin-2-ylamino]-2-methoxy-phenol] | 3.5
COc1ccc(Nc2ncc3ccn(-c4ccc(S(C)(=O)=O)cc4)c3n2)cc1N1CCN(C)CC1 [Example 25, [7-(4-Methanesulfonyl-phenyl)-7H-pyrrolo[2,3-d]pyrimidin-2-yl]-[4-methoxy-3-(4-methyl-piperazin-1-yl)-phenyl]-amine] | < 3
CN1CCN(C(=O)c2ccc(Nc3ncc4ccn(-c5ccc(S(C)(=O)=O)cc5)c4n3)cc2)CC1 [Example 28, {4-[7-(4-Methanesulfonyl-phenyl)-7H-pyrrolo[2,3-d]pyrimidin-2-ylamino]-phenyl}-(4-methyl-piperazin-1-yl)-methanone] | 4
CCN(CC)CCOc1ccc(Nc2ncc3ccn(-c4ccc(S(C)(=O)=O)cc4)c3n2)cc1 [Example 33, [4-(2-Diethylamino-ethoxy)-phenyl]-[7-(4-methanesulfonyl-phenyl)-7H-pyrrolo[2,3-d]pyrimidin-2-yl]-amine] | < 3
CS(=O)(=O)c1ccc(-n2ccc3cnc(Nc4cccc(OCCN5CCOCC5)c4)nc32)cc1 [Example 35, [7-(4-Methanesulfonyl-phenyl)-7H-pyrrolo[2,3-d]pyrimidin-2-yl]-[3-(2-morpholin-4-yl-ethoxy)-phenyl]-amine] | 4.9

The remaining lines, values ahead:

IC50 [nM] | Compound
≤ 3 | OC1CCN(Cc2ccc(Nc3ncc4ccn(-c5cc(F)c(CN6CCOCC6)c(F)c5)c4n3)cn2)C1 (racemic) [Example 388, 1-{5-[7-(3,5-Difluoro-4-morpholin-4-ylmethyl-phenyl)-7H-pyrrolo[2,3-d]pyrimidin-2-ylamino]-pyridin-2-ylmethyl}-pyrrolidin-3-ol]
≤ 3 | COC(C)c1ccc(-n2ccc3cnc(Nc4ccc(N5CCN(C)CC5)nc4)nc32)cc1 (racemic) [Example 449, {7-[4-(1-Methoxy-ethyl)-phenyl]-7H-pyrrolo[2,3-d]pyrimidin-2-yl}-[6-(4-methyl-piperazin-1-yl)-pyridin-3-yl]-amine]
< 3 | COc1ccc(Nc2ncc3ccn(-c4ccc(S(C)(=O)=O)cc4)c3n2)cc1OC [Example 5, (3,4-Dimethoxy-phenyl)-[7-(4-methanesulfonyl-phenyl)-7H-pyrrolo[2,3-d]pyrimidin-2-yl]-amine]
< 3 | COc1ccc(Nc2ncc3ccn(-c4ccc(S(=O)(=O)NC(C)(C)C)cc4)c3n2)cc1OC [Example 6, N-tert-Butyl-4-[2-(3,4-dimethoxy-phenylamino)-pyrrolo[2,3-d]pyrimidin-7-yl]-benzenesulfonamide]
< 3 | CN1CCN2c3ccc(Nc4ncc5ccn(-c6ccc(S(C)(=O)=O)cc6)c5n4)cc3COCC2C1 (centres unmarked) [Example 12, [7-(4-Methanesulfonyl-phenyl)-7H-pyrrolo[2,3-d]pyrimidin-2-yl]-(3-methyl-1,2,3,4,4a,5-hexahydro-7H-6-oxa-3,11b-diaza-dibenzo[a,c]cyclohepten-9-yl)-amine]
8.5 | CS(=O)(=O)c1ccc(-n2ccc3cnc(Nc4ccc5c(c4)OCO5)nc32)cc1 [Example 15, Benzo[1,3]dioxol-5-yl-[7-(4-methanesulfonyl-phenyl)-7H-pyrrolo[2,3-d]pyrimidin-2-yl]-amine]
< 3 | CN1CCN(c2ccc(Nc3ncc4ccn(-c5ccc(S(C)(=O)=O)cc5)c4n3)cc2)CC1 [Example 18, [7-(4-Methanesulfonyl-phenyl)-7H-pyrrolo[2,3-d]pyrimidin-2-yl]-[4-(4-methyl-piperazin-1-yl)-phenyl]-amine]
6.9 | CS(=O)(=O)c1ccc(-n2ccc3cnc(Nc4ccccc4)nc32)cc1 [Example 19, [7-(4-Methanesulfonyl-phenyl)-7H-pyrrolo[2,3-d]pyrimidin-2-yl]-phenyl-amine]
3.9 | COc1ccc(Nc2ncc3ccn(-c4ccc(S(C)(=O)=O)cc4)c3n2)cc1 [Example 20, [7-(4-Methanesulfonyl-phenyl)-7H-pyrrolo[2,3-d]pyrimidin-2-yl]-(4-methoxy-phenyl)-amine]
170 | COc1ccc(Nc2ncc3ccn(-c4ccc(S(C)(=O)=O)cc4)c3n2)c(OC)c1 [Example 22, (2,4-Dimethoxy-phenyl)-[7-(4-methanesulfonyl-phenyl)-7H-pyrrolo[2,3-d]pyrimidin-2-yl]-amine]
3.6 | COc1cc(Nc2ncc3ccn(-c4ccc(S(C)(=O)=O)cc4)c3n2)cc(OC)c1 [Example 23, (3,5-Dimethoxy-phenyl)-[7-(4-methanesulfonyl-phenyl)-7H-pyrrolo[2,3-d]pyrimidin-2-yl]-amine]
< 3 | COc1ccc(Nc2ncc3ccn(-c4ccc(S(C)(=O)=O)cc4)c3n2)cc1OCCN(C)C [Example 26, [3-(2-Dimethylamino-ethoxy)-4-methoxy-phenyl]-[7-(4-methanesulfonyl-phenyl)-7H-pyrrolo[2,3-d]pyrimidin-2-yl]-amine]
5.4 | CN1CCN(CCOc2cccc(Nc3ncc4ccn(-c5ccc(S(C)(=O)=O)cc5)c4n3)c2)CC1 [Example 32, [7-(4-Methanesulfonyl-phenyl)-7H-pyrrolo[2,3-d]pyrimidin-2-yl]-{3-[2-(4-methyl-piperazin-1-yl)-ethoxy]-phenyl}-amine]
